Patent US20250186496A1, “METHODS AND COMPOSITIONS FOR CONTROLLING T CELL ACTIVATION” (The General Hospital Corporation, priority 2022, published 2025)

What was measured:
[1] = tested on: STAT5; assay: STAT5 signaling over increasing concentrations of lenalidomide; type: cell-based, human; conditions: increasing lenalidomide concentration; CAR19 cells with mbdIL7
[2] = tested on: IL-7; assay: Cytokine expression and soluble IL-7 in supernatant of CAR T cells cocultured with CD19+ Nalm6; type: cell-based
Text: FIGS. 13A-13C show mbdIL7 is cleaved from the T cell surface in a state-dependent manner.

[3] = tested on: mbdIL7-Luc; conditions: mice
Experimental: The mdbIL7 was tagged with luciferase (mdbTL7-Luc), so mdbTL7 expression could be monitored in vivo. Mice were injected with Jurkat cells that were transduced with mdbIL7-Luc. The Jurkat mdbTL7-Luc cells were allowed to engraft for 25 days and then pomalidomide was administered to the mice (FIG. 14A).

[4] = tested on: T cells expressing a CD19 CAR; assay: Expansion/activation of CAR T cells in production with or without exogenous IL-2 (population doublings); type: cell-based, human; conditions: CAR19 mbdIL7 without exogenous IL-2 vs CAR19 cells induced with IL-2
Experimental: CAR19 T cells and mbdTL7 CAR19 T cells were cultured with and without exogenous IL-2. […] This was shown for two different types of cancer cells, Nalm6 and K562.

## Nc1cccc2c1CN(C1CCC(=O)NC1=O)C2=O (stereo not drawn) [lenalidomide]
[1]
  pSTAT5 expression: a decrease in pSTAT5 expression
[2]; CAR19 mbdIL7 not experiencing antigen exposure
  effect of lenalidomide on IL-7 cleavage without antigen exposure: no appreciable effects
[2]; CAR19 mbdIL7 with antigen exposure
  control of cleavage of IL-7 from the T cell surface by lenalidomide: effectively controlled by lenalidomide in a dose-dependent manner

## Nc1cccc2c1C(=O)N(C1CCC(=O)NC1=O)C2=O (stereo not drawn) [pomalidomide]
[3]; 6 hours after administration of pomalidomide
  decrease of mdbIL7-luc expression: more than 10 fold
[3]; by 24 hours after pomalidomide administration
  mdbIL7-luc expression: returned to levels similar to pre-administration

B1: mbdIL7: T cell factor: human IL-7, a CD80 hinge and transmembrane domain, and a lenalidomide-responsive zinc finger degron domain (protein)
chain: MLLLVTSLLLCELPHPAFLLIPEQKLISEEDLDCDIEGKDGKQYESVLMVSIDQLLDSMKEIGSNCLNNEFNFFKRHICDANKEGMFLFRAARKLRQFLKMNSTGDFDLHLLKVSEGTTILLNCTGQVKGRKPAALGEAQPTKSLEENKSLKEQKKLNDLCFLKRLLQEIKTCWNKILMGTKEHWNTTKQEHFPDNLLPSWAITLISVNGIFVICCLTYCFAPRCRERRRNERLRRESVRPVGSGSGSGSGGFNVLMVHKRSHTGERPLQCEICGFTCRQKGNLLRHIKLHTGEKPFKCHLCNYACQRRDAL
[4]
  CAR19 cell doubling time / expansion rate: not significantly affected
